Experimental data published in ChEMBL document CHEMBL5338766, “X-ray Crystal Structure-Guided Discovery of Novel Indole Analogues as Colchicine-Binding Site Tubulin Inhibitors with Immune-Potentiating and Antitumor Effects against Melanoma” (J Med Chem, 2023).

Key:
[1] = test system: MCF7; assay: Antiproliferative activity against human MCF7 cells assessed as inhibition of cell proliferation incubated for 48 hrs by MTT assay; assay type: functional, cell-based; details: MCF7, 48 h
[2] = test system: HepG2; assay: Antiproliferative activity against human HepG2 cells assessed as inhibition of cell proliferation incubated for 48 hrs by MTT assay; assay type: functional, cell-based; details: HepG2, 48 h
[3] = test system: B16-F10; assay: Antiproliferative activity against mouse B16-F10 cells assessed as inhibition of cell proliferation incubated for 48 hrs by MTT assay; assay type: functional, cell-based; details: B16-F10, 48 h
[4] = test system: HeLa; assay: Antiproliferative activity against human HeLa cells assessed as inhibition of cell proliferation incubated for 48 hrs by MTT assay; assay type: functional, cell-based
[5] = Toxicity in C57 mouse implanted with mouse B16-F10 cells assessed as body weight loss at 5 mg/kg, ip administered every day for 14 days; assay type: organism-based; details: in vivo, 336 h, time 14 day
[6] = Toxicity in C57 mouse implanted with mouse B16-F10 cells assessed as pathological changes in heart at 5 mg/kg, ip administered every day for 14 days by H&E staining based microscopic analysis; assay type: organism-based; details: in vivo, 336 h, time 14 day
[7] = Toxicity in C57 mouse implanted with mouse B16-F10 cells assessed as pathological changes in kidney at 5 mg/kg, ip administered every day for 14 days by H&E staining based microscopic analysis; assay type: organism-based; details: in vivo, 336 h, time 14 day
[8] = test system: B16-F10; assay: Antitumor activity against mouse B16-F10 cells implanted in C57 mouse assessed as tumor growth inhibition at 5 mg/kg, ip administered every day for 14 days relative to control; assay type: functional; details: B16-F10, 336 h, time 14 day, read-out: TGI
[9] = test system: B16-F10; assay: Antitumor immunity in C57 mouse implanted with mouse B16-F10 cells assessed as increase in CD3+ CD4+ helper T cells in tumor at 5 mg/kg, ip administered every day for 14 days by flow cytometric analysis (reference value: 0.332%); assay type: functional; details: time 14 day
[10] = test system: B16-F10; assay: Antitumor immunity in C57 mouse implanted with mouse B16-F10 cells assessed as increase in CD3+ CD8+ cytotoxic T cells in tumor at 5 mg/kg, ip administered every day for 14 days by flow cytometric analysis (reference value: 0.340%); assay type: functional; details: time 14 day
[11] = Toxicity in C57 mouse implanted with mouse B16-F10 cells assessed as pathological changes in liver at 5 mg/kg, ip administered every day for 14 days by H&E staining based microscopic analysis; assay type: organism-based; details: in vivo, 336 h, time 14 day
[12] = Resistance index, ratio of IC50 for antiproliferative activity against paclitaxel resistant human A2780/Taxol cells to IC50 for antiproliferative activity against parental human A2780S cells; assay type: functional
[13] = Antiproliferative activity against parental human A549S cells assessed as inhibition of cell proliferation incubated for 48 hrs by MTT assay; assay type: functional, cell-based
[14] = test system: A2780S; assay: Antiproliferative activity against parental human A2780S cells assessed as inhibition of cell proliferation incubated for 48 hrs by MTT assay; assay type: functional, cell-based
[15] = Resistance index, ratio of IC50 for antiproliferative activity against paclitaxel resistant human A549/TxR cells to IC50 for antiproliferative activity against parental human A549S cells; assay type: functional
[16] = Antiproliferative activity against paclitaxel resistant human A549/TxR cells assessed as inhibition of cell proliferation incubated for 48 hrs by MTT assay; assay type: functional, cell-based
[17] = test system: A2780/Taxol; assay: Antiproliferative activity against paclitaxel resistant human A2780/Taxol cells assessed as inhibition of cell proliferation incubated for 48 hrs by MTT assay; assay type: functional, cell-based

Structure (SMILES) | IC50 [1] [nM] | IC50 [2] [nM] | IC50 [3] [nM] | IC50 [4] [nM] | further results
COc1cc(-c2nn(C(=O)OC(C)(C)C)c3ccc(-c4cccc5c4ccn5C)cc23)cc(OC)c1OC | 350 | 356 | 492 | 677 | 
COc1cc(-c2n[nH]c3ccc(-c4cccc5c4ccn5C)cc23)cc(OC)c1OC | 45 | 30 | 66 | 48 | 
COc1cc(-c2n[nH]c3ccc(-c4ccc5c(ccn5C)c4)cc23)cc(OC)c1OC | 36 | 49 | 98 | 173 | 
COc1cc(-c2n[nH]c3cnc(-c4ccc5c(ccn5C)c4)cc23)cc(OC)c1OC | 861 | 248 | 1000 | 969 | 
COc1cc(-c2nccc3[nH]c(-c4ccc5ccn(C)c5c4)nc23)cc(OC)c1OC | 30 | 18 | 33 | 45 | 
CCn1ccc2c(-c3nc4c(-c5cc(OC)c(OC)c(OC)c5)nccc4[nH]3)cccc21 | 22 | 11 | 18 | 29 | 
Cc1c(COc2cc3c(cc2Cl)CN(C(C)(C)C(=O)O)C(c2cccc(C#N)c2)O3)cccc1-c1ccccc1 (centres undefined) |  |  |  |  | Activity [5]: Non-Toxic; Activity [6]: Non-Toxic; Activity [7]: Non-Toxic; inhibition in vivo at 5 mg/kg [8]: 48.5%; Activity [9]: 1.43%; Activity [10]: 2.27%; Activity [11]: Non-Toxic
Cn1ccc2c(-c3nc4c(-c5ccc6c(c5)OCCO6)nccc4[nH]3)cccc21 | 213 | 119 | 138 | 92 | 
COc1cc(-c2nccc3[nH]c(-c4ccc5c(ccn5C)c4)nc23)cc(OC)c1OC | 36 | 44 | 60 | 71 | 
COc1cc(-c2n[nH]c3ccc(-c4ccccc4)nc23)cc(OC)c1OC | 957 | 115 | 683 | 742 | 
CC(=O)O[C@H]1C(=O)[C@@]2(C)[C@H]([C@H](OC(=O)c3ccccc3)[C@]3(O)C[C@H](OC(=O)[C@H](O)[C@@H](NC(=O)c4ccccc4)c4ccccc4)C(C)=C1C3(C)C)[C@]1(OC(C)=O)CO[C@@H]1C[C@@H]2O [PACLITAXEL] |  |  |  |  | Ratio IC50 [12]: 746.5; IC50 [13]: 24.9 nM; IC50 [14]: 2.7 nM; Activity [5]: Non-Toxic; Activity [6]: Non-Toxic; Activity [7]: Non-Toxic; inhibition in vivo at 5 mg/kg [8]: 70.4%; Ratio IC50 [15]: 135.9; Activity [11]: Non-Toxic; IC50 [16]: 3380 nM; IC50 [17]: 2020 nM
COc1ccc(-c2nccc3[nH]c(-c4cccc5c4ccn5C)nc23)cc1OC | 699 | 256 | 199 | 453 | 
CCn1ccc2cc(-c3nc4c(-c5cc(OC)c(OC)c(OC)c5)nccc4[nH]3)ccc21 | 317 | 130 | 237 | 195 | 
COc1cc(OC)cc(-c2nccc3[nH]c(-c4cccc5c4ccn5C)nc23)c1 | 260 | 238 | 310 | 105 | 
CCn1ccc2ccc(-c3nc4c(-c5cc(OC)c(OC)c(OC)c5)nccc4[nH]3)cc21 | 602 | 509 | 631 | 818 | 
COc1cc(-c2n[nH]c3cnc(-c4cccc5c4ccn5C)cc23)cc(OC)c1OC | 135 | 82 | 197 | 154 | 
COc1cc(-c2nn(C(=O)OC(C)(C)C)c3ccc(-c4cccc5c4ccn5C)nc23)cc(OC)c1OC | 277 | 210 | 386 | 581 | 
COc1cc(-c2n[nH]c3ccc(-c4ccc5c(ccn5C)c4)nc23)cc(OC)c1OC | 35 | 16 | 43 | 48 | 
COc1cc(-c2cccc3[nH]c(-c4cccc5c4ccn5C)nc23)cc(OC)c1OC |  | 15 |  |  | 
COc1ccc(-c2ccc3[nH]nc(-c4cc(OC)c(OC)c(OC)c4)c3n2)cc1 | 319 | 87 | 271 | 188 | 
COc1cc(-c2n[nH]c3ccc(-c4cccc5c4ccn5C)nc23)cc(OC)c1OC | 28 | 6 | 21 | 40 | 
COc1cc2c(c(OC)c1OC)-c1ccc(OC)c(=O)cc1[C@@H](NC(C)=O)CC2 [COLCHICINE] | 22 |  |  |  | IC50 [13]: 104 nM; IC50 [14]: 23.2 nM; IC50 [16]: 677 nM; IC50 [17]: 670 nM
COc1cc(-c2nn(C(=O)OC(C)(C)C)c3cnc(-c4cccc5c4ccn5C)cc23)cc(OC)c1OC | 7660 | 4700 | 5170 | 5930 | 
COc1cc(-c2n[nH]c3ccc(-c4ccc(C)cc4)nc23)cc(OC)c1OC | 58 | 19 | 32 | 92 | 
